{"source": "patent US11197831B2", "about": "“Compositions comprising at least one dispersed active principle and lipid microcapsules” (GALDERMA RESEARCH & DEVELOPMENT, priority 2015, dated 2021)", "key": {"[1]": {"test": "Maximum or visual solubility of the active ingredient in fatty substances and solvents (HPLC-UV)", "format": "physicochemical", "procedure": "(§1) The solubility and the stability of the active ingredient were evaluated by liquid chromatography coupled to a UV detector (HPLC-UV).\nThe solubility of the active ingredient was evaluated by liquid chromatography coupled to a UV detector (HPLC-UV)."}, "[2]": {"test": "Stability of the active ingredient in fatty substances and solvents (HPLC-UV)", "format": "physicochemical", "procedure": "as §1"}, "[3]": {"system": "Whole human abdominal skin", "test": "In vitro skin penetration kinetics of dispersed Trifarotene (Franz cells, LC/MS/MS)", "format": "in vitro ADME", "conditions": "irrespective of the formulation tested; 24 h", "procedure": "In this study, the formulations were applied for 24 hours to the skin surface. After the application, Trifarotene is quantified at several points in time (1 h, 3 h, 6 h, 8 h and 24 h) in the various skin compartments: stratum corneum, epidermis, dermis, and receiving liquid according to a validated bioanalysis method performed by positive electrospray ionization tandem mass spectrometry, using a Xevo system (Waters). The quantification limit for Trifarotene is 0.01 ng/mL. […] [table] The results presented in FIG. 1 show the amount penetrated as a percentage of the dose applied (% of the dose applied) according to the various skin compartments after 24 h of exposure. The total amount penetrated corresponds to the amount of active ingredient assayed in the various skin compartments (stratum corneum, epidermis, dermis) and the receiving liquid. FIGS. 3 and 4 present the areas under the curve (AUCs) calculated respectively after 8 hours, corresponding to the shortest exposure times, and after 24 hours, corresponding to the longest exposure times. The AUCs were calculated for each kinetics (n=6). They were then statistically compared by one-way ANOVA followed by Dunnett's test."}, "[4]": {"system": "Whole human abdominal skin", "test": "In vitro skin penetration of dispersed Compound A2 (Franz cells, LC/MS/MS)", "format": "in vitro ADME", "conditions": "irrespective of the formulation tested; 24 h", "procedure": "In this study, the formulations were applied for 24 hours to the skin surface. At the end of the application, Compound A2 is quantified in the various skin compartments: stratum corneum, epidermis, dermis, and receiving liquid according to a validated bioanalysis method performed by positive electrospray ionization tandem mass spectrometry, using a Xevo system (Waters). The quantification limit for Compound A2 is 2 ng/mL. The LC/MS/MS conditions developed made it possible to detect up to 0.1% of the dose applied in each compartment (dose not absorbed, stratum, epidermis, dermis, and receiving liquid).\nThe results presented in FIG. 5 show the amount penetrated as a percentage of the dose applied (% of the dose applied) according to the various skin compartments."}, "[5]": {"conditions": "in Capric/caprylic acid triglycerides (Miglyol ® 812N)"}, "[6]": {"conditions": "in Diisopropyl adipate (Schercemol Dia Ester)"}, "[7]": {"conditions": "in Octyldodecanol (Eutanol ® G)"}, "[8]": {"conditions": "in PPG-15 stearyl ether (Arlamol PS11E-LQ)"}, "[9]": {"conditions": "in Propylene glycol dicaprylate/dicaprate (Myritol ® PC)"}}, "data": [{"smiles": "CC(C)(C)c1cc(-c2cc(-c3ccc(C(=O)O)cc3)ccc2OCCO)ccc1N1CCCC1", "note": "[Trifarotene]", "values": [{"measurement": "Maximum solubility (% w/w) (AT)", "setting": "[1]; in Alkyl (C12-15) benzoate (Crodamol AB)", "value": 0.026, "unit": "% w/w"}, {"measurement": "Maximum solubility (% w/w) (AT)", "setting": "[1]; [5]", "value": 0.019, "unit": "% w/w"}, {"measurement": "Maximum solubility (% w/w) (AT)", "setting": "[1]; [6]", "value": 0.297, "unit": "% w/w"}, {"measurement": "Maximum solubility (% w/w) (AT)", "setting": "[1]; in Macrogol oleate (Labrafil ® M1944CS)", "value": 0.156, "unit": "% w/w"}, {"measurement": "Maximum solubility (% w/w) (AT)", "setting": "[1]; in Mineral oil", "value": 0.0001, "unit": "% w/w"}, {"measurement": "Maximum solubility (% w/w) (AT)", "setting": "[1]; [7]", "value": 0.137, "unit": "% w/w"}, {"measurement": "Maximum solubility (% w/w) (AT)", "setting": "[1]; [8]", "value": 0.292, "unit": "% w/w"}, {"measurement": "Maximum solubility (% w/w) (AT)", "setting": "[1]; [9]", "value": 0.069, "unit": "% w/w"}, {"measurement": "Maximum solubility (% w/w) (AT)", "setting": "[1]; in Propylene glycol monocaprylate (Capryol ® 90)", "value": 0.802, "unit": "% w/w"}, {"measurement": "Maximum solubility (% w/w) (AT)", "setting": "[1]; in Propylene glycol monolaurate (Lauroglycol ® FCC)", "value": 0.296, "unit": "% w/w"}, {"measurement": "Maximum solubility (% w/w) (AT)", "setting": "[1]; in Sweet almond oil", "value": 0.011, "unit": "% w/w"}, {"measurement": "Stability", "setting": "[2]; AT/40° C., in Capric/caprylic acid triglycerides (Miglyol ® 812N)", "value": 6, "unit": "months"}, {"measurement": "Stability", "setting": "[2]; AT/40° C., in Diisopropyl adipate (Schercemol Dia Ester)", "value": 6, "unit": "months"}, {"measurement": "Stability", "setting": "[2]; AT/40° C., in Macrogol oleate (Labrafil ® M1944CS)", "value": 6, "unit": "months"}, {"measurement": "Stability", "setting": "[2]; AT/40° C., in PPG-15 stearyl ether (Arlamol PS11E-LQ)", "value": 6, "unit": "months"}, {"measurement": "Stability", "setting": "[2]; AT/40° C., in Propylene glycol monocaprylate (Capryol ® 90)", "value": 6, "unit": "months"}, {"measurement": "Stability", "setting": "[2]; AT/40° C., in Propylene glycol monolaurate (Lauroglycol ® FCC)", "value": 6, "unit": "months"}, {"measurement": "Stability", "setting": "[2]; AT/40° C., in Sweet almond oil", "value": 6, "unit": "months"}, {"measurement": "Stability", "setting": "[2]; [7]", "value": "Unstable"}, {"measurement": "Stability", "setting": "[2]; [9]", "value": "Unstable"}, {"measurement": "skin distribution", "setting": "[3]", "value": "essentially located in the stratum corneum and the epidermis, and more moderately in the dermis"}]}, {"smiles": "Cc1cc(COc2ccc(S(=O)(=O)NC[C@@H](C(=O)NO)N3CCN(S(=O)(=O)C(C)C)CC3)cc2)c2ccccc2n1", "note": "[Compound A3, (S)—N-hydroxy-3-[4-(2-methyl-quinolin-4-ylmethoxy)-benzenesulfonylamino]-2-[4-(propane-2-sulfonyl)-piperazin-1-yl]-propionamide]", "values": [{"measurement": "Maximum or visual* solubility (% w/w) (AT)", "setting": "[1]; in 10/90% Dimethyl sulfoxide/C12-15 alkyl lactate", "value": 0.12, "unit": "% w/w"}, {"measurement": "Maximum or visual* solubility (% w/w) (AT)", "setting": "[1]; in 10/90% Dimethyl sulfoxide/Diisopropyl adipate", "value": 0.38, "unit": "% w/w"}, {"measurement": "Maximum or visual* solubility (% w/w) (AT)", "setting": "[1]; in 10/90% Dimethyl sulfoxide/PPG-15 stearyl ether", "value": 0.07, "unit": "% w/w"}, {"measurement": "Maximum or visual* solubility (% w/w) (AT)", "setting": "[1]; in 20/80% Dimethyl sulfoxide/C12-15 alkyl lactate", "value": 0.74, "unit": "% w/w"}, {"measurement": "Maximum or visual* solubility (% w/w) (AT)", "setting": "[1]; in 20/80% Dimethyl sulfoxide/Schercemol Dia Ester", "value": 3.15, "unit": "% w/w"}, {"measurement": "Maximum or visual* solubility (% w/w) (AT)", "setting": "[1]; in C12-15 alkyl lactate (Ceraphyl 41)", "value": 0.04, "unit": "% w/w"}, {"measurement": "Maximum or visual* solubility (% w/w) (AT)", "setting": "[1]; [5]", "value": "<detection limit"}, {"measurement": "Maximum or visual* solubility (% w/w) (AT)", "setting": "[1]; [6]", "value": 0.02, "unit": "% w/w"}, {"measurement": "Maximum or visual* solubility (% w/w) (AT)", "setting": "[1]; [8]", "value": 0.01, "unit": "% w/w"}, {"measurement": "Maximum or visual* solubility (% w/w) (AT)", "setting": "[1]; visual*, in Dimethyl sulfoxide (Procipient DMSO)", "value": ">20", "unit": "%* % w/w"}]}, {"smiles": "C[C@H](NC(=O)N1CCC(c2ccc(O)cc2O)CC1)c1ccccc1", "note": "[Compound A2, (S)-4-(2,4-dihydroxyphenyl)-N-(1-phenylethyl)piperidine-1-carboxamide]", "values": [{"measurement": "Maximum or visual* solubility (% w/w) (AT)", "setting": "[1]; in Diethylene glycol monoethyl ether (Transcutol HP)", "value": 13.9, "unit": "% w/w"}, {"measurement": "Maximum or visual* solubility (% w/w) (AT)", "setting": "[1]; visual*, in Capric/caprylic acid triglycerides (Miglyol ® 812N)", "value": "<0.1* % w/w"}, {"measurement": "Maximum or visual* solubility (% w/w) (AT)", "setting": "[1]; visual*, in Diisopropyl adipate (Schercemol Dia Ester)", "value": "<1.0* % w/w"}, {"measurement": "Maximum or visual* solubility (% w/w) (AT)", "setting": "[1]; visual*, in Dimethyl capramide (Spectrasolv DMDA)", "value": "20-30* % w/w"}, {"measurement": "Maximum or visual* solubility (% w/w) (AT)", "setting": "[1]; visual*, in PPG-15 stearyl ether (Arlamol PS11E-LQ)", "value": "<1.0* % w/w"}, {"measurement": "Stability (3M) (AT/40° C.)", "setting": "[2]; 3M, AT/40° C., in Diethylene glycol monoethyl ether (Transcutol HP), ** Appearance of coloring at AT and at 40° C.", "value": "Stable **"}, {"measurement": "skin distribution", "setting": "[4]", "value": "essentially located in the stratum corneum and the epidermis, and more moderately in the dermis"}]}]}
